# Tests used:
# [1] = tested on: PD-1/PD-L1 engagement inhibited TCR signaling (PD-1 Effector Cells, PD-L1+ target cells); experiment: PD-1/PD-L1 Blockade Bioassay, GHCer treated effector cells with Keytruda or Tecentriq; type: cell-based; details: 6 hours, FIG. 7; for Release of PD-1/PD-L1 engagement inhibited TCR signaling by checkpoint antibody: 2 μM antibody, effector cells with 40 μM GHCer
# Experimental: (§1) 40 μM GHCer was incubated with PD-1 Effector Cells (PD-1/PD-L1 Blockade Bioassay Kit, Promega, Cat# J3011), then incubate for 24 hours at 37° C. with 5% CO2. PD-L1+ target cells were seeded in 96 well plate and incubate for 24 hours at 37° C. with 5% CO2. The growth medium from the plates coated PD-L+ cells was replaced by the GHCer/Effector cells R×n with 2 μM Keytruda, the Anti-PD-1 mAb, or 2 lμM Tecentriq, the Anti-PD-L1 mAb, and incubate for 6 hours at 37° C. with 5% CO2. Plate was removed to ambient temperature for 10 mins. Bio-Glo™ Reagent was added and incubate for 15 mins then read by luminometer.
# [2] = tested on: PD-1/PD-L1 engagement inhibited TCR signaling (PD-1 Effector Cells, PD-L1+ target cells); experiment: PD-1/PD-L1 Blockade Bioassay, SSEA4Cer treated effector cells with Keytruda or Tecentriq; type: cell-based; details: 6 hours, FIG. 8; for Release of PD-1/PD-L1 engagement inhibited TCR signaling by checkpoint antibody: 2 μM antibody, effector cells with 40 μM SSEA4Cer
# Experimental: as §1, with “SSEA4Cer” for “GHCer”, “SSEA4Cer/Effector” for “GHCer/Effector”, “μM” for “lμM”
# [3] = tested on: GHCer and PD-1/PD-L1 engagement inhibited TCR signaling (PD-1 Effector Cells, PD-L1+ target cells); experiment: PD-1/PD-L1 Blockade Bioassay, GHCer pre-incubated with OBI-888, combined with Keytruda or Tecentriq; type: cell-based; details: 10 μM OBI-888 with GHCer 4 hours; 2 μM Keytruda or 2 μM Tecentriq, 6 hours; FIG. 10 as printed
# Experimental: (§2) GHCer were incubated with 10 μM OBI-888 in assay medium containing 99% RPMI 1640/1% FBS (PD-1/PD-L1 Blockade Bioassay Kit, Promega, Cat# J3011) at 37° C. for 4 hours. Samples were centrifuged at 8000×g for 5 minutes twice and supernatant were harvested and incubated with PD-1 Effector Cells for 24 hours. PD-L1+ target cells were seeded in 96 well plate and incubate for 24 hours at 37° C. with 5% CO2. The growth medium from the plates coated PD- L1 cells was replaced by the GHCer/Effector cells R×n with 2 μM Keytruda or 2 μM Tecentriq and incubate for 6 hours at 37° C. with 5% CO2. Plate was removed to ambient temperature for 10 mins. Bio-Glo™ Reagent was added and incubate for 15 mins then read by luminometer.
# [4] = tested on: SSEA4Cer and PD-1/PD-L1 engagement inhibited TCR signaling (PD-1 Effector Cells, PD-L1+ target cells); experiment: PD-1/PD-L1 Blockade Bioassay, SSEA4Cer pre-incubated with OBI-898, combined with Keytruda or Tecentriq; type: cell-based; details: 5 μM OBI-898 with SSEA4Cer 4 hours; 2 μM Keytruda or 2 μM Tecentriq, 6 hours; FIG. 11 as printed
# Experimental: as §2, with “SSEA4Cer were” for “GHCer were”, “with 5” for “with 10”, “μM OBI-898” for “μM OBI-888”, “medium” for “medium containing 99% RPMI 1640/1% FBS (PD-1/PD-L1 Blockade Bioassay Kit, Promega, Cat# J3011)”, “hours. PD-L+” for “hours. PD-L1+”, “the SSEA4Cer/Effector” for “the GHCer/Effector”
# [5] = tested on: Jurkat/NFAT-Re Luc cells; experiment: Jurkat/NFAT-Re Luc T cell activation by Anti-CD3/CD28, luciferase reporter, after pre-incubation with Globo series ceramides; type: cell-based, human; details: various concentrations of ceramide, pre-incubated 18-24 hours; 6 hours activation; FIG. 2
# Experimental: Jurkat/NFAT-Re Luc cells (Promega, Inc., Cat# G7102) were pre-incubated with or without various concentrations of chemically synthesized Globo H ceramide (GHCer) or SSEA-4 ceramide (SSEA4Cer) for 18-24 hours in 48-well culture plate. Cells were collected and transferred to white, flat-bottom 96-well assay plates (Greiner Bio-One GmbH, Cat#655073) coated overnight with Anti-human CD3 (100 ng/well) (BioLegend, Inc. Cat#317326), and Anti-human CD28 (300 ng/well) (BioLegend, Inc. Cat#302914) in 37° C. incubator for a 6 hours activation. Assay plates were removed from the incubator and equilibrated to room temperature (22-25° C.) for 15 minutes. 75 μL of Bio-Glo™ Luciferase Assay Reagent (Promega, Inc. Cat#G7940) was added and incubated the plates at RT for 15 minutes. Luminescence was measured using a microplate reader SpectraMax L (Molecular Devices, LLC.). The Photomultiplier Tube (PMT) sensitivity was set as autorange and calibrated at 570 nm. Fold of induction was calculated by RLUactivated/RLUunstimulated.
# [6] = tested on: PD-1 Effector Cells with PD-L1+ target cells (TCR signaling); experiment: PD-1/PD-L1 Blockade Bioassay with GHCer or SSEA4Cer treated PD-1 Effector Cells; type: cell-based; details: various concentration of ceramide on PD-1 Effector Cells 24 hours, 6 hours with PD-L1+ cells; FIG. 6 as printed
# Experimental: Various concentration of GHCer or SSEA4Cer was incubated with PD-1 Effector Cells (PD-1/PD-L1 Blockade Bioassay Kit, Promega, Cat# J3011), then incubate for 24 hours at 37° C. PD-L+ target cells (PD-1/PD-L1 Blockade Bioassay Kit, Promega, Cat# J3011) were seeded in 96 well plate and incubate for 24 hours at 37° C. with 5% CO2. The growth medium from the plate coated PD- L1+ cells was replaced by the GHCer or SSEA4Cer/Effector cells R×n and incubated for 6 hours. Plate was removed to ambient temperature for 10 mins. Bio-Glo™ Reagent was added and incubate for 15 mins then read by luminometer.
substance,measurement,setting,value
"Keytruda: the Anti-PD-1 mAb; MSD Ireland, Lot 7302614A13",Release of PD-1/PD-L1 engagement inhibited TCR signaling by checkpoint antibody,[1],released PD-1/PD-L1 engagement inhibited TCR signaling
same,Release of PD-1/PD-L1 engagement inhibited TCR signaling by checkpoint antibody,[2],released PD-1/PD-L1 engagement inhibited TCR signaling
same,Rescue of GHCer and PD-1/PD-L1 engagement inhibited TCR signaling by combination,[3],acts synergistically with Keytruda
same,Rescue of SSEA4Cer and PD-1/PD-L1 engagement inhibited TCR signaling by combination,[4],acts synergistically with Keytruda
SSEA-4 ceramide [SSEA4Cer],"Jurkat T cell activation to Anti-CD3/28 stimulation (fold of induction, RLUactivated/RLUunstimulated)",[5],suppress the Jurkat T cell activation to Anti-CD3/28 stimulation in a dose dependent manner
same,Suppression of TCR activation signaling pathway together with PD-1/PD-L1 engagement,[6],acts synergistically with PD-1/PD-L1 engagement to suppress the TCR activation signaling pathway
same,Effect of SSEA4Cer incorporation on Keytruda or Tecentriq released TCR signaling,"[2]; 40 μM SSEA4Cer on effector cells 24 hours, 2 μM Keytruda or 2 μM Tecentriq",reduced Keytruda or Tecentriq released PD-1/PD-L1 engagement inhibited TCR signaling
"Tecentriq: the Anti-PD-L1 mAb; Roche, Lot H0125B11",Release of PD-1/PD-L1 engagement inhibited TCR signaling by checkpoint antibody,[1],released PD-1/PD-L1 engagement inhibited TCR signaling
same,Release of PD-1/PD-L1 engagement inhibited TCR signaling by checkpoint antibody,[2],released PD-1/PD-L1 engagement inhibited TCR signaling
same,Rescue of GHCer and PD-1/PD-L1 engagement inhibited TCR signaling by combination,[3],synergistically with Keytruda or Tecentriq
same,Rescue of SSEA4Cer and PD-1/PD-L1 engagement inhibited TCR signaling by combination,[4],synergistically with Keytruda or Tecentriq
Globo H ceramide [GHCer],"Jurkat T cell activation to Anti-CD3/28 stimulation (fold of induction, RLUactivated/RLUunstimulated)",[5],suppress the Jurkat T cell activation to Anti-CD3/28 stimulation in a dose dependent manner
same,Suppression of TCR activation signaling pathway together with PD-1/PD-L1 engagement,[6],acts synergistically with PD-1/PD-L1 engagement to suppress the TCR activation signaling pathway
same,Effect of GHCer incorporation on Keytruda or Tecentriq released TCR signaling,"[1]; 40 μM GHCer on effector cells 24 hours, 2 μM Keytruda or 2 lμM Tecentriq",reduced Keytruda or Tecentriq released PD-1/PD-L1 engagement inhibited TCR signaling
